{"source": "patent US20240092727A1", "about": "“CRYSTALLINE 4-((L-VALYL)OXY)BUTANOIC ACID” (XWPHARMA LTD., priority 2022, published 2024)", "key": {"[1]": {"assay": "Sealed storage stability study (ICH Q1A (R2)), four storage conditions, 3- and 6-month timepoints", "type": "physicochemical", "design": "key to Crystalline Form: C = Conforms; N/A = Not Applicable", "details": "for Crystalline Form: XRPD; for Crystalline Form / Assay / Total Impurities / Water Content: sealed storage", "source_text": "(§1) “Sealed storage stability” refers to the stability of a compound that is enclosed within two sealed polyethylene bags with a desiccant material placed between the two polyethylene bags and the two sealed polyethylene bags are enclosed within a sealed one-layer aluminum bag.\nCrystalline 4-((L-valyl)oxy)butanoic acid was packaged in double low-density polyethylene (LDPE) zipper bags and sealed. The packaged samples were then placed within an aluminum foil outer bag (polyethylene, polyethylene terephthalate three-layer composite) and sealed. The fully packaged samples were placed in stability chambers for the duration of the sealed storage stability study.\nSealed storage stability studies were carried out under four sets of conditions external to the packaged crystalline 4-((L-valyl)oxy)butanoic acid: • 1. Accelerated conditions ([…], 75±5% RH). • 2. Intermediate storage condition ([…], 65±5% RH). • 3. Long-term storage condition (25±2° C., […]). • 4. 2-8° C. conditions.\nThe sealed storage stability of crystalline 4-((L-valyl)oxy)butanoic acid (1) was tested according to the International Council for Harmonization of Technical Requirements for Pharmaceuticals for Human Use (ICH) document Q1A (R2) “Stability Testing of New Drug Substances and Products.” Accordingly, samples were pulled at 3- and 6-month timepoints. The assay percentage of the crystalline 4-((L-valyl)oxy)butanoic acid was determined by electrochemical titration using acetic acid as the solvent and perchloric acid as the titrant. Water content was tested by Karl Fischer titration (Karl Fisher Titrator: Mettler V30). Impurities were measured by HPLC (HPLC Instrument: Waters Arc HPLC system with CAD; Column: Waters Atlantis T3, 4.6×150 mm, 3 μm). The samples were analyzed by XRPD analysis (XRPD Instrument: Bruker D8 advance). The sealed storage stability results of crystalline 4-((L-valyl)oxy)butanoic acid stored under the four storage conditions are summarized in Table 2."}, "[2]": {"assay": "Sealed storage stability, other studies, 36 months", "type": "physicochemical", "details": "25±2° C., for 36 months; stable = absorbs less than 2 wt % water and impurity content of less than 2 wt %", "source_text": "as §1\nStability is defined as the sample of crystalline 4-((L-valyl)oxy)butanoic acid absorbs less than 2 wt % water and an impurity content of less than 2 wt % for a period of time under the indicated sealed storage conditions."}, "[3]": {"details": "up to 6 months under all sealed storage conditions"}}}
{"smiles": "CC(C)[C@H](N)C(=O)OCCCC(=O)O", "note": "[4-((L-valyl)oxy)butanoic acid]", "values": [{"measurement": "Crystalline Form", "setting": "[1]; 2-8° C., 6 M", "value": "C"}, {"measurement": "Crystalline Form", "setting": "[1]; 2-8° C., D 0", "value": "C"}, {"measurement": "Crystalline Form", "setting": "[1]; 25 ± 2° C., 60 ± 5% RH, 6 M", "value": "C"}, {"measurement": "Crystalline Form", "setting": "[1]; 25 ± 2° C., 60 ± 5% RH, D 0", "value": "C"}, {"measurement": "Crystalline Form", "setting": "[1]; 30 ± 2° C., 65 ± 5% RH, 3 M", "value": "C"}, {"measurement": "Crystalline Form", "setting": "[1]; 30 ± 2° C., 65 ± 5% RH, 6 M", "value": "C"}, {"measurement": "Crystalline Form", "setting": "[1]; 30 ± 2° C., 65 ± 5% RH, D 0", "value": "C"}, {"measurement": "Crystalline Form", "setting": "[1]; 40 ± 2° C., 75 ± 5% RH, 6 M", "value": "C"}, {"measurement": "Crystalline Form", "setting": "[1]; 40 ± 2° C., 75 ± 5% RH, D 0", "value": "C"}, {"measurement": "Assay", "setting": "[1]; 2-8° C., 3 M", "value": 98.8, "unit": "wt %"}, {"measurement": "Total Impurities", "setting": "[1]; 2-8° C., 3 M", "value": 0.4, "unit": "wt %"}, {"measurement": "Water Content", "setting": "[1]; 2-8° C., 3 M", "value": 0.2, "unit": "wt %"}, {"measurement": "Assay", "setting": "[1]; 2-8° C., 6 M", "value": 99.8, "unit": "wt %"}, {"measurement": "Total Impurities", "setting": "[1]; 2-8° C., 6 M", "value": 0.2, "unit": "wt %"}, {"measurement": "Water Content", "setting": "[1]; 2-8° C., 6 M", "value": 0.3, "unit": "wt %"}, {"measurement": "Assay", "setting": "[1]; 2-8° C., D 0", "value": 99.4, "unit": "wt %"}, {"measurement": "Total Impurities", "setting": "[1]; 2-8° C., D 0", "value": 0.3, "unit": "wt %"}, {"measurement": "Water Content", "setting": "[1]; 2-8° C., D 0", "value": 0.1, "unit": "wt %"}, {"measurement": "Assay", "setting": "[1]; 25 ± 2° C., 60 ± 5% RH, 3 M", "value": 98.8, "unit": "wt %"}, {"measurement": "Total Impurities", "setting": "[1]; 25 ± 2° C., 60 ± 5% RH, 3 M", "value": 0.5, "unit": "wt %"}, {"measurement": "Water Content", "setting": "[1]; 25 ± 2° C., 60 ± 5% RH, 3 M", "value": 0.2, "unit": "wt %"}, {"measurement": "Assay", "setting": "[1]; 25 ± 2° C., 60 ± 5% RH, 6 M", "value": 99.3, "unit": "wt %"}, {"measurement": "Total Impurities", "setting": "[1]; 25 ± 2° C., 60 ± 5% RH, 6 M", "value": 0.4, "unit": "wt %"}, {"measurement": "Water Content", "setting": "[1]; 25 ± 2° C., 60 ± 5% RH, 6 M", "value": 0.3, "unit": "wt %"}, {"measurement": "Assay", "setting": "[1]; 25 ± 2° C., 60 ± 5% RH, D 0", "value": 99.4, "unit": "wt %"}, {"measurement": "Total Impurities", "setting": "[1]; 25 ± 2° C., 60 ± 5% RH, D 0", "value": 0.3, "unit": "wt %"}, {"measurement": "Water Content", "setting": "[1]; 25 ± 2° C., 60 ± 5% RH, D 0", "value": 0.1, "unit": "wt %"}, {"measurement": "Assay", "setting": "[1]; 30 ± 2° C., 65 ± 5% RH, 3 M", "value": 99.9, "unit": "wt %"}, {"measurement": "Total Impurities", "setting": "[1]; 30 ± 2° C., 65 ± 5% RH, 3 M", "value": 0.4, "unit": "wt %"}, {"measurement": "Water Content", "setting": "[1]; 30 ± 2° C., 65 ± 5% RH, 3 M", "value": 0.4, "unit": "wt %"}, {"measurement": "Assay", "setting": "[1]; 30 ± 2° C., 65 ± 5% RH, 6 M", "value": 99.3, "unit": "wt %"}, {"measurement": "Total Impurities", "setting": "[1]; 30 ± 2° C., 65 ± 5% RH, 6 M", "value": 0.4, "unit": "wt %"}, {"measurement": "Water Content", "setting": "[1]; 30 ± 2° C., 65 ± 5% RH, 6 M", "value": 0.1, "unit": "wt %"}, {"measurement": "Assay", "setting": "[1]; 30 ± 2° C., 65 ± 5% RH, D 0", "value": 99.4, "unit": "wt %"}, {"measurement": "Total Impurities", "setting": "[1]; 30 ± 2° C., 65 ± 5% RH, D 0", "value": 0.3, "unit": "wt %"}, {"measurement": "Water Content", "setting": "[1]; 30 ± 2° C., 65 ± 5% RH, D 0", "value": 0.1, "unit": "wt %"}, {"measurement": "Assay", "setting": "[1]; 40 ± 2° C., 75 ± 5% RH, 3 M", "value": 98.8, "unit": "wt %"}, {"measurement": "Total Impurities", "setting": "[1]; 40 ± 2° C., 75 ± 5% RH, 3 M", "value": 0.6, "unit": "wt %"}, {"measurement": "Water Content", "setting": "[1]; 40 ± 2° C., 75 ± 5% RH, 3 M", "value": 0.1, "unit": "wt %"}, {"measurement": "Assay", "setting": "[1]; 40 ± 2° C., 75 ± 5% RH, 6 M", "value": 99.3, "unit": "wt %"}, {"measurement": "Total Impurities", "setting": "[1]; 40 ± 2° C., 75 ± 5% RH, 6 M", "value": 0.7, "unit": "wt %"}, {"measurement": "Water Content", "setting": "[1]; 40 ± 2° C., 75 ± 5% RH, 6 M", "value": 0.3, "unit": "wt %"}, {"measurement": "Assay", "setting": "[1]; 40 ± 2° C., 75 ± 5% RH, D 0", "value": 99.4, "unit": "wt %"}, {"measurement": "Total Impurities", "setting": "[1]; 40 ± 2° C., 75 ± 5% RH, D 0", "value": 0.3, "unit": "wt %"}, {"measurement": "Water Content", "setting": "[1]; 40 ± 2° C., 75 ± 5% RH, D 0", "value": 0.1, "unit": "wt %"}, {"measurement": "Chemical stability of the crystalline sample", "setting": "[1]; [3]", "value": "chemically stable"}, {"measurement": "Sealed storage stability", "setting": "[1]; [3]", "value": "stable"}, {"measurement": "Sealed storage stability", "setting": "[2]", "value": "sealed storage stable"}]}
